Consider 1 compound from patent US20240108602A1, “TREATMENT OF MENTAL DISORDERS” (GH Research Ireland Limited, priority 2022, published 2024).

A value given as a limit tells only on which side of the number the result lay.

The nature of series [1]: Pharmacokinetics of 5-MeO-DMT and bufotenine after inhalation, LC-MS/MS. It counts as in vivo, human. On the procedure:
Blood samples were obtained at 1; 2; 4; 7; 10; 15; 20; 30; 45 min and 1; 1.5; 2; 3; 4 hours after administration.
PK parameters were generated by algebraic analysis of the concentration versus time plots for each individual. The analysis was carried out using the software Phoenix WinNonlin 6.3.

Series [2] in a line: 5-MeO-DMT, 5-MIAA and bufotenine in urine, serum and breastmilk of a lactating PPD patient, LC-MS/MS. As for the experimental part:
The second patients was lactating, and, per the clinical trial protocol, breastmilk samples were collected pre-dosing and at multiple timepoints after administration of the last dose. […] Similar analyses were carried out on patient serum and urine samples.

The next series relates to human plasma proteins. Briefly: 5-MeO-DMT binding to human plasma proteins, high throughput dialysis. The series is classed as in vitro ADME. To be noted: 4-hour dialysis. On the procedure: Following evaluation of the equilibration data, plasma protein binding was investigated at nominal concentrations of 0.1, 1 and 10 μM using a 4-hour dialysis time. […]
Setting [3] is: 1.0 hrs after last dose (6 mg then 12 mg 5-MeO-DMT).

Regarding `COc1ccc2[nH]cc(CCN(C)C)c2c1` [5-MeO-DMT], the “plasma concentration as % of Cmax” value in series [1] (10 minutes after administration, 6-18 mg) was ≤ 10%; in series [1] (after 2 hours, 6-18 mg) it was ≤ 1%. Also, the detectability in plasma result in series [1] (after 3 hours, 6-18 mg) is recorded as “no longer detectable”. The “5-MeO-DMT still present, % Cmax” value in series [1] (after about 1 hour, healthy volunteers and PPD patients) is “less than 10%”. In addition, the “accumulation upon repeated administration” value in series [1] (repeat within 1 to 4 hours) is “No accumulation”. Moreover, the Breastmilk concentration in series [2] (setting [3]) is 2167.0 pg/mL; in series [2] (2.5 hrs after last dose), 560.6 pg/mL; in series [2] (8.5 hrs after last dose) it was 42.1 pg/mL; in series [2] (24.0 hrs after last dose), “did not detect any 5-MeO-DMT and BLG”; in series [2] (120.0 hrs after last dose), “BLQ (BLQ: Below limit of quantification. The lower limit of quantification is 25 pg/ml for both 5-MeO-DMT and 5-MIAA in both serum and breastmilk; it is 25 pg/ml in urine for 5-MeO-DMT and 250 pg/ml for 5-MIAA in urine.)”; in series [2] (−24.0 hrs (pre-dosing)), “BLQ (BLQ: Below limit of quantification. The lower limit of quantification is 25 pg/ml for both 5-MeO-DMT and 5-MIAA in both serum and breastmilk; it is 25 pg/ml in urine for 5-MeO-DMT and 250 pg/ml for 5-MIAA in urine.)”. The Serum concentration is 0.1329 ng/mL in series [2] (setting [3]); “BLQ (BLQ: Below limit of quantification. The lower limit of quantification is 25 pg/ml for both 5-MeO-DMT and 5-MIAA in both serum and breastmilk; it is 25 pg/ml in urine for 5-MeO-DMT and 250 pg/ml for 5-MIAA in urine.)” in series [2] (2.5 hrs after last dose); “BLQ (BLQ: Below limit of quantification. The lower limit of quantification is 25 pg/ml for both 5-MeO-DMT and 5-MIAA in both serum and breastmilk; it is 25 pg/ml in urine for 5-MeO-DMT and 250 pg/ml for 5-MIAA in urine.)” in series [2] (24.0 hrs after last dose); “BLQ (BLQ: Below limit of quantification. The lower limit of quantification is 25 pg/ml for both 5-MeO-DMT and 5-MIAA in both serum and breastmilk; it is 25 pg/ml in urine for 5-MeO-DMT and 250 pg/ml for 5-MIAA in urine.)” in series [2] (120.0 hrs after last dose); “BLQ (BLQ: Below limit of quantification. The lower limit of quantification is 25 pg/ml for both 5-MeO-DMT and 5-MIAA in both serum and breastmilk; it is 25 pg/ml in urine for 5-MeO-DMT and 250 pg/ml for 5-MIAA in urine.)” in series [2] (−24.0 hrs (pre-dosing)). For the same compound, the Urine concentration in series [2] (2.5 hrs after last dose) was 566.7 pg/mL; in series [2] (8.5 hrs after last dose), “BLQ (BLQ: Below limit of quantification. The lower limit of quantification is 25 pg/ml for both 5-MeO-DMT and 5-MIAA in both serum and breastmilk; it is 25 pg/ml in urine for 5-MeO-DMT and 250 pg/ml for 5-MIAA in urine.)”; in series [2] (24.0 hrs after last dose), “BLQ (BLQ: Below limit of quantification. The lower limit of quantification is 25 pg/ml for both 5-MeO-DMT and 5-MIAA in both serum and breastmilk; it is 25 pg/ml in urine for 5-MeO-DMT and 250 pg/ml for 5-MIAA in urine.)”; in series [2] (120.0 hrs after last dose), “BLQ (BLQ: Below limit of quantification. The lower limit of quantification is 25 pg/ml for both 5-MeO-DMT and 5-MIAA in both serum and breastmilk; it is 25 pg/ml in urine for 5-MeO-DMT and 250 pg/ml for 5-MIAA in urine.)”; in series [2] (−24.0 hrs (pre-dosing)), “BLQ (BLQ: Below limit of quantification. The lower limit of quantification is 25 pg/ml for both 5-MeO-DMT and 5-MIAA in both serum and breastmilk; it is 25 pg/ml in urine for 5-MeO-DMT and 250 pg/ml for 5-MIAA in urine.)”. The “Free Fraction in human plasma” value with human plasma proteins (0.1 μM) stood at 78.7%; with human plasma proteins (1 μM), 77.3%; in the series with human plasma proteins (10 μM), 87.0%.
